Assay results: patent US11753407B2, “Compounds for treating spinal muscular atrophy” (PTC Therapeutics, Inc., priority 2012, dated 2023)

Tests used:
[1] = tested on: SMN2 mRNA in tissues of C/C-allele SMA mice; assay: SMN2 mRNA RT-qPCR splicing assay in animal tissues; type: in vivo; conditions: brain and muscle, 10 mg/kg BID oral gavage 10 days, versus vehicle (FIG. 6)
Procedure: The reverse transcription-quantitative PCR-based (RT-qPCR) assay is used to quantify the levels of the full length and Δ7 SMN2 mRNA in tissues from mice treated with test compound.
Protocol. C/C-allele SMA mice are treated by oral gavage two times per day (BID) for 10 days with test compounds re-suspended in 0.5% HPMC and 0.1% Tween-80. Tissue samples were collected and snap frozen for RNA purification.
Tissue samples (20-40 mg) are homogenized in QIAzol Lysis Reagent for 2 minutes at 20 Hz in the TissueLyser II using one stainless steel bead. After addition of chloroform, the homogenate is separated into aqueous and organic phases by centrifugation. RNA partitioned to the upper, aqueous phase is extracted and ethanol is added to provide appropriate binding conditions. The sample is then applied to the RNeasy spin column from the RNeasy Mini Kit, where total RNA binds to the membrane. The RNA is eluted in RNase-free water then stored at −20° C. and subsequently analyzed using the TaqMan RT-qPCR on the 7900HT Thermocycler. Total RNA is diluted ten fold and 2.5 μL of the diluted sample is added to the TaqMan RT-qPCR mixture.
SMN2 spliced products are identified using the following primers and probe in Table 7. Primer SMN FL Forward B (SEQ ID NO. 7) hybridizes to a nucleotide sequence in exons 7 and 8, primer SMN Δ7 Forward B (SEQ ID NO. 8) hybridizes to a nucleotide sequence in exons 6 and 8, primer SMN Reverse B (SEQ ID NO. 9) hybridizes to a nucleotide sequence in exon 8, probe SMN Probe B (SEQ ID NO. 10) hybridizes to a nucleotide sequence in exon 8. These primers and probe hybridize to nucleotide sequences common to human SMN1 and SMN2 mRNA. Since the SMA patient cells used in Example 5 contain only the SMN2 gene, RT-qPCR can quantify only SMN2 full-length and Δ7 mRNA.
The SMN forward and reverse primers are used at final concentrations of 0.4 μM. The SMN probe is used at a final concentration of 0.15 μM. The SMN-GAPDH Mix (10 μL total volume) is prepared by combining 5 μL of 2× RT-PCR buffer, 0.4 μL of 25× RT-PCR enzyme mix, 0.5 μL of 20× GAPDH primer-probe mix, 1.505 μL of water, 2.5 μL of RNA solution, 0.04 μL of 100 μM forward primer, 0.04 μL of 100 μM reverse primer, and 0.015 μL of 100 μM SMN probe. […]
The increase of SMN2 FL and decrease in SMN2 Δ7 mRNA relative to those in tissues from animals treated with vehicle control are determined from real-time PCR data using a modified ΔΔCt method (as described in Livak and Schmittgen, Methods, 2001, 25:402-8). The amplification efficiency (E) is calculated from the slope of the amplification curve for SMN2 FL, SMN2 Δ7, and GAPDH individually. The abundances of SMN2 FL, SMN2 Δ7, and GAPDH are then calculated as (1+E)^−Ct, where Ct is the threshold value for each amplicon. […]

[2] = tested on: Smn protein in human motor neurons derived from SMA iPS cells; assay: Smn protein assay in human motor neurons; type: cell-based; conditions: 72 hours, increasing concentrations (FIG. 10)
Procedure: Smn immunofluorescent confocal microscopy is used to quantify the level of Smn protein in human motor neurons treated with test compounds.
Protocol. Human motor neurons derived from SMA iPS cells (Ebert et al., Nature, 2009, […]; and, Rubin et al., BMC Biology, 2011, 9:42) are treated with test compound at various concentrations for 72 hours. The level of Smn protein in the cell nucleus is quantified using Smn immunostaining and confocal fluorescence microscopy essentially as described in Makhortova et al., Nature Chemical Biology, 2011, 7:544. The level of Smn protein in compound-treated samples is normalized to that in vehicle-treated samples and plotted as a function of the compound concentration.

SMILES | SMN2 FL mRNA [1] | SMN2 Δ7 mRNA [1] | Smn protein in the nucleus [2]
COc1ccc(-c2cc(=O)n3cc(N4CCNCC4)ccc3n2)cc1OC [Cpd 6, 2-(3,4-dimethoxyphenyl)-7-(piperazin-1-yl)-4H-pyrido[1,2-a]pyrimidin-4-one] | substantially more SMN2 FL mRNA | less SMN2 Δ7 mRNA | progressively more Smn protein in the nucleus
Cc1cn2nc(-c3cc(=O)n4cc(N5CCN(C)CC5)ccc4n3)cc2c(C)n1 [Cpd 170, 2-(4,6-dimethylpyrazolo[1,5-a]pyrazin-2-yl)-7-(4-methylpiperazin-1-yl)-4H-pyrido[1,2-a]pyrimidin-4-one] | substantially more SMN2 FL mRNA | less SMN2 Δ7 mRNA | 
